The test system of one assay is Purkinje Fiber. Description: Cardiac electrophysiology in vitro: action potential parameters of dog Purkinje fibers. Format: cell-based. As to conditions: 3 μM, BCL = 300. As to the method:
Bundles of free-running Purkinje fibers with attached myocardium obtained from either ventricle of adult dog heart were pinned without stretching to the bottom of a 10 mL tissue chamber and continuously superfused with oxygenated Tyrode's solution at a flow rate of 5 mL/minute. The composition of the Tyrode's solution was (mM): NaCl, 138; KCl 4; CaCl2, 2; MgCl2, 0.5; NaHCO3, 24; dextrose, 5.5. The solution was aerated with 95% O2 --5% CO2 at 37° C. Bath temperature was maintained at 37°±0.5° C. by circulating the pre-warmed superfusate through a thermostatically controlled water bath immediately prior to entering the tissue chamber. […] The first derivative of the action potential upstroke (Vmax) was obtained using an analog differentiator circuit, coupled to a peak-hold circuit that retained the recorded value of Vmax for 30 to 70-msec. […] Action potential (AP) parameters measured included: diastolic take-off potential (or activation voltage, V(act); AP overshoot (Vos); AP duration measured as the time taken to repolarize to -20 mV (APD-20), -60 mV (APD-60), and -80 mV (APD-80); and maximal upstroke velocity (Vmax). An increase in APD-60 that occurred without a significant change in Vmax was taken, by definition, to indicate Class III antiarrhythmic activity "in vitro".

The conditions of assay [1]: dextro enantiomer; Taggart et al. 1985, McComb et al. 1985; cited from earlier work.
The test system of a further assay is Dog. Description: Ventricular fibrillation threshold in dog. Format: in vivo, mongrel dog. Conditions: 5 mg/kg i.v. The protocol:
VENTRICULAR FIBRILLATION THRESHOLD
Mongrel dogs of both sexes weighing 12 to 18 kg were anesthetized with sodium pentobarbital (35 mg/kg i.v. supplemented with 5 mg/kg/h) and artificially ventilated with room air (minute volume: 200 mL/kg).
A right thoracotomy was performed at the fifth intercostal space and the heart suspended in a pericardial cradle. Bipolar electrodes for stimulation were sutured to the free wall of the right atrium and to the right ventricle.
The dog heart was paced by a stimulus for driving a constant current isolation unit.
Ventricular fibrillation threshold (VFT) was determined during atrial pacing at […]. Trains of 4-msec duration square-wave pulses (50 Hz, 200-msec duration) were delivered to the right ventricle via the epicardial bipolar electrode (silver contacts 1 mm in diameter and 5 mm apart embedded in acrylic matrix). Trains of pulses were delivered every 12th paced beat and were timed to terminate with the end of the T wave of the ECG. Current intensity was increased progressively until ventricular fibrillation (VF) occurred. The lowest current intensity producing VF was defined as the ventricular fibrillation threshold (VFT). […] VFT was measured twice before drug administration to establish a stable pre-drug threshold. […]

Consider `CN(Cc1ccc2ccccc2n1)CC(O)COc1ccc([N+](=O)[O-])cc1.Cl.Cl` (stereo not shown) [Example 3, 1-[Methyl(2-quinolinylmethyl)amino]-3-(4-nitrophenoxy)-2-propanol Dihydrochloride], for which the APD-60 result in the assay with Purkinje Fiber is “did not pace”.
Turning to `CC(C)NCC(O)c1ccc(NS(C)(=O)=O)cc1` (stereo not shown) [Sotalol, 4-(2-isopropylamino-1-hydroxyethyl)-methanesulfonamide], the “selective Class III antiarrhythmic activity” value in assay [1] was “selective Class III antiarrhythmic activity”.
On to `CN(Cc1ccc2ccccc2n1)CC(O)COc1ccc(NS(C)(=O)=O)cc1` (stereo not shown) [Example 4, N-[4-[2-Hydroxy-3-[methyl(2-quinolinylmethyl)amino]propoxy]phenyl]methanesulfonamide], for which the “Ventricular fibrillation threshold (current threshold necessary to induce fibrillation)” value in the assay with Dog (n = 6, x + S.E., pre-drug vehicle 8 + 2) is 25 + 7 mA. The compound further had an animals defibrillated spontaneously in the assay on Dog (of 6 animals) of 2 animals.

Values taken from patent US5084463A, “N-quinolinyl alkyl-substituted 1-aryloxy-2-propanolamine and propylamine derivatives possessing class III antiarrhythmic activity” (American Home Products Corporation, priority 1990, dated 1992).
